Laboratory results taken from ChEMBL document CHEMBL2074559, “Inhibition of multidrug resistance-associated protein (MRP) activity by rifampicin in human multidrug-resistant lung tumor cells” (Cancer Lett, 1999).

Tests used:
[1] = molecular target: T1, Multidrug resistance-associated protein 1 (Homo sapiens, UniProt P33527); test: TP_TRANSPORTER: increase in Calcein intracellular accumulation (Calcein: 0.5 uM, Rifampicin: 200 uM) in GLC4/ADR cells; assay type: functional, cell-based; details: glc-4/adr
T1 sequence (P33527 whole entry): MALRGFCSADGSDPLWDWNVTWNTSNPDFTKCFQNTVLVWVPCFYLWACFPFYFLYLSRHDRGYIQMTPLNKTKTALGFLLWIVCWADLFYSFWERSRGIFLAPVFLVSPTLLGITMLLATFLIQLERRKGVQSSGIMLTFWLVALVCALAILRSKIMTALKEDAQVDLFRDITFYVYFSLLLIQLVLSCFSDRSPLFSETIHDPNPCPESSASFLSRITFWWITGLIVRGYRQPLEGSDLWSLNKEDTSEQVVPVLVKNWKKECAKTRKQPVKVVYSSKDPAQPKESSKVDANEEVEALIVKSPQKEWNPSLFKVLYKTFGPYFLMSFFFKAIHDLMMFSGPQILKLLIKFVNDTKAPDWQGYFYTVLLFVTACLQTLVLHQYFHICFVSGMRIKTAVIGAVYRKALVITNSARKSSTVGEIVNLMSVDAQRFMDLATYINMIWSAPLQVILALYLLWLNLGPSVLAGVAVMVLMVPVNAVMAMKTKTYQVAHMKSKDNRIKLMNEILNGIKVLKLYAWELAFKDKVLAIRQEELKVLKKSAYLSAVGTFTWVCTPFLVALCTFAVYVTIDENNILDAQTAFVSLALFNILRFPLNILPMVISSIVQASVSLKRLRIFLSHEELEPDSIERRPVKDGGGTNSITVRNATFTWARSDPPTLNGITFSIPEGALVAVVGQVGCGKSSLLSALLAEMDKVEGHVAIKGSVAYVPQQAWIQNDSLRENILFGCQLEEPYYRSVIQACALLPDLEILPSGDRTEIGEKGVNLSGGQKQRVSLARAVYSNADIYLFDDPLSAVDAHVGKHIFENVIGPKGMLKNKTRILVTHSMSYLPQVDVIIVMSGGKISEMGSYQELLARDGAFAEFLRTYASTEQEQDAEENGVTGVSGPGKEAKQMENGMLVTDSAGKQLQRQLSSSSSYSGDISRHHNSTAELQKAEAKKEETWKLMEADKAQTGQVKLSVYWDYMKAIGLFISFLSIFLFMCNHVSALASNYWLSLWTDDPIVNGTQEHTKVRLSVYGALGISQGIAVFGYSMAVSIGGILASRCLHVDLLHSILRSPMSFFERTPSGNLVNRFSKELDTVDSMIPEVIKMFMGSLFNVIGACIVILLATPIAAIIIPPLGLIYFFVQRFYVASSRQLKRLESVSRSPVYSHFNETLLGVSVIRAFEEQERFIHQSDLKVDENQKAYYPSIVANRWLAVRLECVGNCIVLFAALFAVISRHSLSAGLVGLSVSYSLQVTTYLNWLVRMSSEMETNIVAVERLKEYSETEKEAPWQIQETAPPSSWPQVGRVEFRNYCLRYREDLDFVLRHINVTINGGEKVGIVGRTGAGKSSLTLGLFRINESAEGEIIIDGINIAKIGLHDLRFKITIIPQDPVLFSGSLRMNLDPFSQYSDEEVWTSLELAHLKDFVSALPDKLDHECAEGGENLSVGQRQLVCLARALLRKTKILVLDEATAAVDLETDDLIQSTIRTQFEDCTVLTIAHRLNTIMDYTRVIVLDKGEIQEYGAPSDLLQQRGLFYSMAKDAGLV

[2] = molecular target: T1, Multidrug resistance-associated protein 1; test: TP_TRANSPORTER: increase in Calcein intracellular accumulation (Calcein: 0.5 uM, Rifamycin SV: 200 uM) in GLC4/ADR cells; assay type: functional, cell-based; details: glc-4/adr

Activity [1]	Activity [2]	Compound
110%	–	CO[C@H]1/C=C/O[C@@]2(C)Oc3c(C)c(O)c4c(O)c(c(/C=N/N5CCN(C)CC5)c(O)c4c3C2=O)NC(=O)/C(C)=C\C=C\[C@H](C)[C@H](O)[C@@H](C)[C@@H](O)[C@@H](C)[C@H](OC(C)=O)[C@@H]1C [RIFAMPIN]
–	110%	CO[C@H]1/C=C/O[C@@]2(C)Oc3c(C)c(O)c4c(O)c(cc(O)c4c3C2=O)NC(=O)/C(C)=C\C=C\[C@H](C)[C@H](O)[C@@H](C)[C@@H](O)[C@@H](C)[C@H](OC(C)=O)[C@@H]1C [RIFAMYCIN]
